The target in data set [1] is Amyloid-beta precursor protein (Homo sapiens) (UniProt P05067). In words: Inhibition of amyloid beta (1 to 42) (unknown origin) self induced aggregation assessed as time at which amplitude of ThT emission is 50% of difference between final and initial fluorescence emission at 40 to 5000 uM […] by ThT-based fluorometric method (reference value: 11 +/- 1 hrs).

For data set [2] the target is unchanged. The experiment in a line: Inhibition of amyloid beta (1 to 42) (unknown origin) self induced aggregation assessed as fluorescence emission rate constant K at 40 to 5000 uM […] by ThT-based fluorometric method (reference value: 1.3 +/- 0.1).
Data set [3] shares this target. In words: Inhibition of amyloid beta (1 to 42) (unknown origin) self induced aggregation assessed as lag time at 40 to 5000 uM […] by ThT-based fluorometric method (reference value: 8.3 +/- 0.7 hrs).
Data set [4] shares this target. In words: Inhibition of amyloid beta (1 to 42) (unknown origin) self induced aggregation assessed as difference between final and initial fluorescence emission at 40 to 5000 uM […] by ThT-based fluorometric method (reference value: 52 +/- 7 a.u.).
For data set [5] the target is unchanged. The experiment in a line: Inhibition of amyloid beta (1 to 42) (unknown origin) self induced aggregation […] by ThT-based fluorometric method.
Data set [6] can be described thus: Antiglycating activity in phosphate buffer assessed as ACR levels at 10 mM at pH 7.4 after 24 hr by RP-HPLC analysis relative to control. Type of data set: physicochemical. The conditions noted are these: pH 7.4, 24 h, 10000 µM.
Data set [7] is described as follows: Antiglycating activity in phosphate buffer assessed as decrease in ACR levels at 10 mM at pH 7.4 by RP-HPLC analysis. The class given is physicochemical. The conditions noted are these: pH 7.4, 10000 µM, TDE = time-dependent effect.
Data set [8] addresses Amyloid-beta precursor protein (Homo sapiens) (UniProt P05067). In words: Inhibition of amyloid beta (1 to 42) (unknown origin) self induced aggregation assessed as reduction in protofibrils formation at 500 uM after 30 hrs by atomic force microscopic analysis.
The nature of data set [9]: Stability of the compound assessed as human recombinant carnosinase mediated compound hydrolysis at 0.5 mM after 2.5 hrs by RP-HPLC analysis. The conditions noted are these: 500 µM. Type of data set: ADME.
The target of data set [10] is Amyloid-beta precursor protein (Homo sapiens) (UniProt P05067). In words: Inhibition of amyloid beta (1 to 42) (unknown origin) self induced aggregation assessed as reduction in flat ribbons formation at 500 uM after 30 hrs by atomic force microscopic analysis.
Data set [11] shares this target. In words: Inhibition of amyloid beta (1 to 42) (unknown origin) self induced aggregation assessed as average assembled nanostructure height at 500 uM after 30 hrs by atomic force microscopic analysis.
Data set [12] can be described thus: Antiglycating activity in phosphate buffer assessed as ACR-compound adduct formation at 10 mM at pH 7.4 after 1 to 24 hrs by HPLC-MS/MS spectra analysis. The class given is physicochemical. To be noted: pH 7.4, 10000 µM.
Data set [13] in a line: Inhibition of cupric ion-mediated amyloid beta (1 to 40) aggregation at 20 mM at pH 6.6 after 3 hrs by light scattering assay.
A short description of data set [14]: Drug metabolism assessed as human recombinant carnosinase mediated compound hydrolysis at 0.5 mM after 1.5 hrs by RP-HPLC analysis. Type of data set: ADME. The conditions noted are these: 500 µM.
Data set [15] can be described thus: Antiglycating activity in phosphate buffer assessed as decrease in ACR levels at 10 mM at pH 7.4 after 1 hr by RP-HPLC analysis relative to control. The class given is physicochemical. Further details: scale not given: the % may be the effect or the level left. The conditions noted are these: pH 7.4, 1 h, 10000 µM.
The nature of data set [16]: Antiglycating activity in phosphate buffer assessed as decrease in ACR levels at 10 mM at pH 7.4 up to 4 hrs by RP-HPLC analysis relative to control. Further details: scale not given: the % may be the effect or the level left. The class given is physicochemical. The conditions noted are these: pH 7.4, 4 h, 10000 µM.
Data set [17] has as its target Amyloid-beta precursor protein (Homo sapiens) (UniProt P05067). The experiment in a line: Inhibition of amyloid beta (1 to 42) (unknown origin) self induced aggregation assessed as Tlag at 40 to 5000 uM in presence of trehalose by ThT-based fluorometric method (reference value: 8.3 +/- 0.7 hrs).
For data set [18] the target is unchanged. In words: Inhibition of amyloid beta (1 to 42) (unknown origin) self induced aggregation assessed as difference between final and initial fluorescence emission at 40 to 5000 uM […] in presence of trehalose by ThT-based fluorometric method (reference value: 52 +/- 7 a.u.).
For data set [19] the target is unchanged. In words: Inhibition of amyloid beta (1 to 42) (unknown origin) self induced aggregation assessed as time at which amplitude of ThT emission is 50% of difference between final and initial fluorescence emission at 40 to 5000 uM in presence of trehalose by ThT-based fluorometric method (reference value: 11 +/- 1 hrs).
For data set [20] the target is unchanged. In words: Inhibition of amyloid beta (1 to 42) (unknown origin) self induced aggregation assessed as fluorescence emission rate constant K at 40 to 5000 uM […] in presence of trehalose by ThT-based fluorometric method (reference value: 1.3 +/- 0.1).

Structures are written as SMILES. Calls of active or inactive are those of the source. No cut-off for these calls is given here.

Amyloid-beta precursor protein (Homo sapiens), sequence (P05067 whole entry): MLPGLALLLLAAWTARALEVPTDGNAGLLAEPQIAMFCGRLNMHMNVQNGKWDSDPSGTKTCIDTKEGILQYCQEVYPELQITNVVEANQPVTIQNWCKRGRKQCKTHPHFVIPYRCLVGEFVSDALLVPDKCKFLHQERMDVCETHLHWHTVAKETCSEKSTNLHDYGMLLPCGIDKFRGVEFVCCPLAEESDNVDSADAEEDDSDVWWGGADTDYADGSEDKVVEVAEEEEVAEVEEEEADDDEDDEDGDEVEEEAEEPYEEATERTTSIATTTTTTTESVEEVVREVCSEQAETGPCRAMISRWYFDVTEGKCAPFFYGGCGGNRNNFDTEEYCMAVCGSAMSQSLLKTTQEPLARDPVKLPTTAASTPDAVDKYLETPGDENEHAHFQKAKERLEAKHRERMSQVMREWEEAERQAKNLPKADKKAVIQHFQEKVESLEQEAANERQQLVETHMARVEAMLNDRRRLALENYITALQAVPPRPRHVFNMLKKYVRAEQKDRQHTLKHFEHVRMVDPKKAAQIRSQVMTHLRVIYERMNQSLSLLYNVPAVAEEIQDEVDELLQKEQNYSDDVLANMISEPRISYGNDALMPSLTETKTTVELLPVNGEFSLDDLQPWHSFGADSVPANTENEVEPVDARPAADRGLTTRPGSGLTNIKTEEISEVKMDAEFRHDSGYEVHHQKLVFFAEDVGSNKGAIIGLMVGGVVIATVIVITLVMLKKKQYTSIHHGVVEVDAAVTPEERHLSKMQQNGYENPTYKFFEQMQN

For `OC[C@H]1O[C@H](O[C@H]2O[C@H](CO)[C@@H](O)[C@H](O)[C@H]2O)[C@H](O)[C@@H](O)[C@@H]1O`, the T1/2 in [1] stood at 8.3 h. The K in data set [2] came out at 1.7. In data set [3], the Tlag came out at 4.7 h. The Activity in data set [4] is 37 a.u; in [5], “Dose-dependent effect”.
On to `O=C(CCNC[C@H]1O[C@H](O[C@H]2O[C@H](CO)[C@@H](O)[C@H](O)[C@H]2O)[C@H](O)[C@@H](O)[C@@H]1O)N[C@@H](Cc1c[nH]cn1)C(=O)O`, for which the Activity in data set [6] is 1%; in [7] it was “Tde”; in data set [11] it was 2.1 nm; in data set [12], “Active”; in data set [4], 6 a.u; in data set [5], “Dose-dependent effect”. In addition, in data set [1], the T1/2 was determined as 4.1 h. Moreover, the inhibition result in data set [8], in data set [10] and in data set [13] was “Active” in each case. Besides, in [9], the Stability entry is “Stable”. In addition, the K in [2] was found to be 0.7. Further, the Tlag in [3] turned out to be 2.7 h.
Consider `NCCC(=O)N[C@@H](Cc1cnc[nH]1)C(=O)O` [CARNOSINE], for which the Activity in [6] is 0%; in data set [12], “Active”; in [15], 40%; in [16] it was 0%. Moreover, in data set [14], the Drug metabolism entry is reported as “Metabolite_Detected”.
Turning to `NCCC(=O)N[C@@H](Cc1c[nH]cn1)C(=O)O`, the values for the T1/2 in data set [1] and in [19] were 7.8 h and 5.8 h, respectively. For the same compound, the inhibition entry in data set [8] and in data set [10] was “inactive” each time. Further, the K came to 1.9 in data set [2] and 2.7 in data set [20]. Further, the Tlag was determined as 4.3 h in data set [17] and 3.9 h in [3]. In addition, the Activity in [18] is 31 a.u; in [4], 33 a.u; in data set [5], “Dose-dependent effect”. Also, in [13], the inhibition entry was “Active”.

The values above are taken from ChEMBL document CHEMBL4052638, “Multitarget trehalose-carnosine conjugates inhibit Aβ aggregation, tune copper(II) activity and decrease acrolein toxicity” (Eur J Med Chem, 2017).
